Assay results: patent US11267822B2, “BET bromodomain protein degraders with cleavable linkers” (THE REGENTS OF THE UNIVERSITY OF MICHIGAN, priority 2017, dated 2022)

Columns and labels:
MOLM13 = assay: Cell growth inhibition, CellTiter-Glo Luminescent Cell Viability Assay, MOLM13; format: cell-based; details: MOLM13 cells, 4 days
Procedure: (§1) Cell growth inhibitory activity of representative Compounds of the Disclosure was determined using the CellTiter-Glo® Luminescent Cell Viability Assay. Cells were seeded in 384-well white opaque cell culture plates at a density of 2,000 cells/well with serially diluted compounds and incubated at 37° C. in an atmosphere of 95% air and 5% CO2 for 4 days. Cell viability was determined using the CellTiter-Glo® Luminescent Cell Viability Assay Kit (Promega, Madison, Wis.) according to the manufacture's instruction. Briefly, a volume of CellTiter-Glo® Reagent equal to the volume of cell culture medium was added to each well, and then the plates were incubated at room temperature for 10-20 minutes. The luminescent signal was measured using a Tecan Infinite M1000 multimode microplate reader (Tecan, Morrisville, N.C.). The half maximal inhibitory concentration (IC50) in Table 3 was calculated using the GraphPad Prism 5 software (GraphPad Software, La Jolla, Calif.).

MDA-MB-231 = assay: Cell growth inhibition, CellTiter-Glo Luminescent Cell Viability Assay, MDA-MB-231; format: cell-based; details: MDA-MB-231 cells, 4 days
Procedure: as §1

Row | SMILES | IC50 (MOLM13; Homo sapiens, MOLM-13, 96 h) | IC50 (MDA-MB-231; Homo sapiens, MDA-MB-231, 96 h) | further results
1 | Cc1c(C#Cc2cnn(CCCC(=O)OCCCN3CCC(Nc4cccc5c4CN(C4CCC(=O)NC4=O)C5=O)CC3)c2)sc2c1C(c1ccc(Cl)cc1)=N[C@@H](CC(=O)N1CCN(C)CC1)c1nnc(C)n1-2 (stereo partly drawn) [Cpd. No. 1, 3-(4-((2-(2,6-dioxopiperidin-3-yl)-1-oxoisoindolin-4-yl)amino)piperidin-1-yl)propyl 4-(4-(((S)-4-(4-chlorophenyl)-3,9-dimethyl-6-(2-(4-methylpiperazin-1-yl)-2-oxoethyl)-6H-thieno[3,2-f][1,2,4]triazolo[4,3-a][1,4]diazepin-2-yl)ethynyl)-1H-pyrazol-1-yl)butanoate] | 1.1 nM | 2.5 nM | 
2 | Cc1c(C#Cc2cnn(CC(=O)OCC#Cc3cccc4c3CN(C3CCC(=O)NC3=O)C4=O)c2)sc2c1C(c1ccc(Cl)cc1)=N[C@@H](C)c1nnc(C)n1-2 (stereo partly drawn) [Cpd. No. 4, 3-(2-(2,6-dioxopiperidin-3-yl)-1-oxoisoindolin-4-yl)prop-2-yn-1-yl 2-(4-(((S)-4-(4-chlorophenyl)-3,6,9-trimethyl-6H-thieno[3,2-f][1,2,4]triazolo[4,3-a][1,4]diazepin-2-yl)ethynyl)-1H-pyrazol-1-yl)acetate] |  |  | IC50 (MOLM13): 17.3 nM; IC50 (MDA-MB-231): 276 nM
3 | Cc1c(C#Cc2cnn(CCCC(=O)OCCCOc3cccc4c3CN(C3CCC(=O)NC3=O)C4=O)c2)sc2c1C(c1ccc(Cl)cc1)=N[C@@H](C)c1nnc(C)n1-2 (stereo partly drawn) [Cpd. No. 5, 3-((2-(2,6-dioxopiperidin-3-yl)-1-oxoisoindolin-4-yl)oxy)propyl 4-(4-(((S)-4-(4-chlorophenyl)-3,6,9-trimethyl-6H-thieno[3,2-f][1,2,4]triazolo[4,3-a][1,4]diazepin-2-yl)ethynyl)-1H-pyrazol-1-yl)butanoate] | 0.1 nM | 0.1 nM | 
4 | Cc1nnc2n1-c1sc(C#Cc3cnn(CCCC(=O)OCCCNc4cccc5c4CN(C4CCC(=O)NC4=O)C5=O)c3)c(Cc3ccccc3)c1COC2 (stereo not drawn) [Cpd. No. 18, 3-((2-(2,6-dioxopiperidin-3-yl)-1-oxoisoindolin-4-yl)amino)propyl 4-(4-((3-benzyl-9-methyl-4H,6H-thieno[2,3-e][1,2,4]triazolo[3,4-c][1,4]oxazepin-2-yl)ethynyl)-1H-pyrazol-1-yl)butanoate] | 7.3 nM |  | 
5 | Cc1c(C#Cc2cnn(CCCC(=O)OCCCOc3cccc4c3CN(C3CCC(=O)NC3=O)C4=O)c2)sc2c1C(c1ccc(Cl)cc1)=N[C@@H](CC(=O)N1CCN(C)CC1)c1nnc(C)n1-2 (stereo partly drawn) [compound 9, 3-((2-(2,6-dioxopiperidin-3-yl)-1-oxoisoindolin-4-yl)oxy)propyl 4-(4-(((S)-4-(4-chlorophenyl)-3,9-dimethyl-6-(2-(4-methylpiperazin-1-yl)-2-oxoethyl)-6H-thieno[3,2-f][1,2,4]triazolo[4,3-a][1,4]diazepin-2-yl)ethynyl)-1H-pyrazol-1-yl)butanoate] | 0.2 nM |  | 
6 | Cc1c(C#Cc2cnn(CCCC(=O)OCCOCCOCCOc3cccc4c3CN(C3CCC(=O)NC3=O)C4=O)c2)sc2c1C(c1ccc(Cl)cc1)=N[C@@H](CC(=O)N1CCN(C)CC1)c1nnc(C)n1-2 (stereo partly drawn) [compound 10, 2-(2-(2-((2-(2,6-dioxopiperidin-3-yl)-1-oxoisoindolin-4-yl)oxy)ethoxy)ethoxy)ethyl 4-(4-(((S)-4-(4-chlorophenyl)-3,9-dimethyl-6-(2-(4-methylpiperazin-1-yl)-2-oxoethyl)-6H-thieno[3,2-f][1,2,4]triazolo[4,3-a][1,4]diazepin-2-yl)ethynyl)-1H-pyrazol-1-yl)butanoate] | 4 nM |  | 
7 | Cc1c(C#Cc2cnn(CCCC(=O)OCCOCCN3CCC(Nc4cccc5c4CN(C4CCC(=O)NC4=O)C5=O)CC3)c2)sc2c1C(c1ccc(Cl)cc1)=N[C@@H](CC(=O)N1CCN(C)CC1)c1nnc(C)n1-2 (stereo partly drawn) [compound 13, 2-(2-(4-((2-(2,6-dioxopiperidin-3-yl)-1-oxoisoindolin-4-yl)amino)piperidin-1-yl)ethoxy)ethyl 4-(4-(((S)-4-(4-chlorophenyl)-3,9-dimethyl-6-(2-(4-methylpiperazin-1-yl)-2-oxoethyl)-6H-thieno[3,2-f][1,2,4]triazolo[4,3-a][1,4]diazepin-2-yl)ethynyl)-1H-pyrazol-1-yl)butanoate] |  | 12.2 nM | 
8 | Cc1c(C#Cc2cnn(CCCC(=O)OCCOCCOCCN3CCC(Nc4cccc5c4CN(C4CCC(=O)NC4=O)C5=O)CC3)c2)sc2c1C(c1ccc(Cl)cc1)=N[C@@H](CC(=O)N1CCN(C)CC1)c1nnc(C)n1-2 (stereo partly drawn) [compound 14, 2-(2-(2-(4-((2-(2,6-dioxopiperidin-3-yl)-1-oxoisoindolin-4-yl)amino)piperidin-1-yl)ethoxy)ethoxy)ethyl 4-(4-(((S)-4-(4-chlorophenyl)-3,9-dimethyl-6-(2-(4-methylpiperazin-1-yl)-2-oxoethyl)-6H-thieno[3,2-f][1,2,4]triazolo[4,3-a][1,4]diazepin-2-yl)ethynyl)-1H-pyrazol-1-yl)butanoate] |  | 20.7 nM | 

Further lines, with some results ahead:

Row | IC50 (MOLM13; Homo sapiens, MOLM-13, 96 h) | IC50 (MDA-MB-231; Homo sapiens, MDA-MB-231, 96 h) | SMILES | further results
9 | 7.3 nM |  | Cc1nnc2n1-c1sc(C#Cc3cnn(CCCOC(=O)CCCCc4cccc5c4CN(C4CCC(=O)NC4=O)C5=O)c3)c(Cc3ccccc3)c1COC2 (stereo not drawn) [compound 19, 3-(4-((3-benzyl-9-methyl-4H,6H-thieno[2,3-e][1,2,4]triazolo[3,4-c][1,4]oxazepin-2-yl)ethynyl)-1H-pyrazol-1-yl)propyl 5-(2-(2,6-dioxopiperidin-3-yl)-1-oxoisoindolin-4-yl)pentanoate] | 
10 | 22.6 nM |  | Cc1nnc2n1-c1sc(C#Cc3cnn(CCCOC(=O)CCCc4cccc5c4CN(C4CCC(=O)NC4=O)C5=O)c3)c(Cc3ccccc3)c1COC2 (stereo not drawn) [compound 20, 3-(4-((3-benzyl-9-methyl-4H,6H-thieno[2,3-e][1,2,4]triazolo[3,4-c][1,4]oxazepin-2-yl)ethynyl)-1H-pyrazol-1-yl)propyl 4-(2-(2,6-dioxopiperidin-3-yl)-1-oxoisoindolin-4-yl)butanoate] | 
11 | 17.6 nM |  | Cc1nnc2n1-c1sc(C#Cc3cnn(CCCC(=O)OCCCN4CCN(c5cccc6c5C(=O)N(C5CCC(=O)NC5=O)C6=O)CC4)c3)c(Cc3ccccc3)c1COC2 (stereo not drawn) [compound 24, 3-(4-(2-(2,6-dioxopiperidin-3-yl)-1,3-dioxoisoindolin-4-yl)piperazin-1-yl)propyl 4-(4-((3-benzyl-9-methyl-4H,6H-thieno[2,3-e][1,2,4]triazolo[3,4-c][1,4]oxazepin-2-yl)ethynyl)-1H-pyrazol-1-yl)butanoate] | 
12 |  | 24.1 nM | Cc1nnc2n1-c1sc(C#Cc3cnn(CCCC(=O)OCCOCCN4CCC(Nc5cccc6c5CN(C5CCC(=O)NC5=O)C6=O)CC4)c3)c(Cc3ccccc3)c1COC2 (stereo not drawn) [compound 26, 2-(2-(4-((2-(2,6-dioxopiperidin-3-yl)-1-oxoisoindolin-4-yl)amino)piperidin-1-yl)ethoxy)ethyl 4-(4-((3-benzyl-9-methyl-4H,6H-thieno[2,3-e][1,2,4]triazolo[3,4-c][1,4]oxazepin-2-yl)ethynyl)-1H-pyrazol-1-yl)butanoate] | 
13 |  | 23.3 nM | Cc1nnc2n1-c1sc(C#Cc3cnn(CCCC(=O)OCCOCCOCCN4CCC(Nc5cccc6c5CN(C5CCC(=O)NC5=O)C6=O)CC4)c3)c(Cc3ccccc3)c1COC2 (stereo not drawn) [compound 27, 2-(2-(2-(4-((2-(2,6-dioxopiperidin-3-yl)-1-oxoisoindolin-4-yl)amino)piperidin-1-yl)ethoxy)ethoxy)ethyl 4-(4-((3-benzyl-9-methyl-4H,6H-thieno[2,3-e][1,2,4]triazolo[3,4-c][1,4]oxazepin-2-yl)ethynyl)-1H-pyrazol-1-yl)butanoate] | 
14 | 4.9 nM |  | Cc1nnc2n1-c1sc(C#Cc3cnn(CCCC(=O)OCCCCc4cccc5c4CN(C4CCC(=O)NC4=O)C5=O)c3)c(Cc3ccccc3)c1COC2 (stereo not drawn) [compound 35, 4-(2-(2,6-dioxopiperidin-3-yl)-1-oxoisoindolin-4-yl)butyl 4-(4-((3-benzyl-9-methyl-4H,6H-thieno[2,3-e][1,2,4]triazolo[3,4-c][1,4]oxazepin-2-yl)ethynyl)-1H-pyrazol-1-yl)butanoate] | 
15 | 4.6 nM |  | Cc1nnc2n1-c1sc(C#Cc3cnn(CCCC(=O)OCCCc4cccc5c4CN(C4CCC(=O)NC4=O)C5=O)c3)c(Cc3ccccc3)c1COC2 (stereo not drawn) [compound 36, 3-(2-(2,6-dioxopiperidin-3-yl)-1-oxoisoindolin-4-yl)propyl 4-(4-((3-benzyl-9-methyl-4H,6H-thieno[2,3-e][1,2,4]triazolo[3,4-c][1,4]oxazepin-2-yl)ethynyl)-1H-pyrazol-1-yl)butanoate] | 
16 | 9.1 nM |  | Cc1nnc2n1-c1sc(C#Cc3cnn(CC(=O)OCCCOc4cccc5c4CN(C4CCC(=O)NC4=O)C5=O)c3)c(Cc3ccccc3)c1COC2 (stereo not drawn) [compound 37, 3-((2-(2,6-dioxopiperidin-3-yl)-1-oxoisoindolin-4-yl)oxy)propyl 2-(4-((3-benzyl-9-methyl-4H,6H-thieno[2,3-e][1,2,4]triazolo[3,4-c][1,4]oxazepin-2-yl)ethynyl)-1H-pyrazol-1-yl)acetate] | 
17 |  | > 100 nM | Cc1nnc2n1-c1sc(C#Cc3cnn(CC(=O)OCC#Cc4cccc5c4CN(C4CCC(=O)NC4=O)C5=O)c3)c(Cc3ccccc3)c1COC2 (stereo not drawn) [compound 39, 3-(2-(2,6-dioxopiperidin-3-yl)-1-oxoisoindolin-4-yl)prop-2-yn-1-yl 2-(4-((3-benzyl-9-methyl-4H,6H-thieno[2,3-e][1,2,4]triazolo[3,4-c][1,4]oxazepin-2-yl)ethynyl)-1H-pyrazol-1-yl)acetate] | 
18 |  | 24.3 nM | Cc1nnc2n1-c1sc(C#Cc3cnn(CC(=O)OCCC#Cc4cccc5c4CN(C4CCC(=O)NC4=O)C5=O)c3)c(Cc3ccccc3)c1COC2 (stereo not drawn) [compound 40, 4-(2-(2,6-dioxopiperidin-3-yl)-1-oxoisoindolin-4-yl)but-3-yn-1-yl 2-(4-((3-benzyl-9-methyl-4H,6H-thieno[2,3-e][1,2,4]triazolo[3,4-c][1,4]oxazepin-2-yl)ethynyl)-1H-pyrazol-1-yl)acetate] | 
